The test system of one data set is Aβ38, Aβ40 or Aβ42. In words: 14 days treatment, DEA extraction of soluble amyloid beta from brain homogenates. It counts as in vivo. The settings on record: data not shown. The source says: We also noted, data not shown, that p-FTAA treatment for 14 days, in 4 months old female […] transgenic mice, led to decreased Aβ38, Aβ40 or Aβ42 levels in the DEA Extraction of [soluble] Amyloid beta from brain homogenates.

Data set [1] has as its system hAPPSL transgenic mice. In words: 30 days treatment, Morris Water Maze (MWM) test. In kind it is in vivo. The settings on record: 10 mg/kg, ip 30 days, treatment days 24 to 27. The procedure: (§1) Starting at 8 months of age, female hAPPSL mice were treated with vehicle only or p-FTAA in 3 dosages for 30 days. The Test Item (T.I.) p-FTAA was administered in 3 dosages in Vehicle. 48 hAPP Tg mice plus 4 reserves allocated to 4 different treatment groups were treated with either vehicle only (control) or with p-FTAA in dosages of 0.1 mg/kg/day, 1 mg/kg/day, or 10 mg/kg/day. As an additional control, 12 nTg littermates of the hAPPSL mice (plus 1 reserve) were treated with vehicle only. Vehicle and T.I.s were administered twice daily intra peritoneal (i.p.) for 30 days.
The MWM was performed during 4 days at the end of treatment period (treatment days 24 to 27). […]
The escape latency (the time needed to find the hidden platform and therefore to escape from the water), the swimming path (the length to reach the target), the swimming speed and in the probe trial crossings over the former platform position and the abidance in the target quadrant were evaluated. […]
Descriptive statistical analysis was performed on all evaluated parameters. […] Group differences were calculated by a parametric ANOVA followed by a Bonferroni post test or by a non-parametric Kruskal Wallis ANOVA followed by a Dunn's post test if Gaussian distribution was missing. Learning curves were evaluated by a Two-way ANOVA followed by a Bonferroni post test. […]

Data set [2] has as its system hAPPSL transgenic mice. The experiment in a line: 14 days treatment, general observations, tolerance to compound (toxicity). The settings on record: for animals that died premature: ip 14 days. In kind it is in vivo. As for the experimental part:
Vehicle: Phosphate Buffered Saline (PBS; 6.7 mM PO4, 155 mM NaCl, pH=7.3-7.5) (BioWhittaker PBS from Lonza).
T:I: p-FTAA, Mw=617 g/mol, diluted in vehicle from stock solution in deionized water (10 mg/ml).
Tg hAPPSL: Transgenic hAPPSL mice over-expressing hAPP(751) under the control of the murine Thy-1 promoter with a C57BL/6xDBA background.
Starting at 4 months of age, female hAPPSL mice were treated with vehicle only or p-FTAA in 3 dosages for 14 days. 40 hAPP Tg mice plus 4 reserves allocated to 4 different treatment groups were treated with either vehicle only (control) or with p-FTAA in dosages of 0.1 mg/kg/day, 1 mg/kg/day, or 10 mg/kg/day. Vehicle and T.I.s were administered twice daily intra peritoneal (ip) for 14 days.
In total 44 animals allocated to 4 treatment groups were included in the study. 4 animals died premature due to unknown reason: 1 animal each of the 1 mg/kg and 10 mg/kg T.I. groups and 2 animals from the control group.

Another data set has as its system amyloid plaques. The experiment in a line: 30 days treatment, plaque load by 6E10 IHC and ThioflavinS staining. In kind it is in vivo, mice. Conditions: for hippocampal plaque load compared to vehicle: t-test. As for the experimental part:
as §1
Following blood sampling, mice were transcardially perfused with physiological (0.9%) saline. The brains were removed from the skull and the cerebellum was cut off, immediately frozen on dry ice and stored at −80° C. The remaining brain was hemisected and the left hemisphere was weighed, immediately frozen on dry ice and stored at −80° C. until A13 analysis. The right hemisphere was fixed with paraformaldehyde as described in section 4.3.1.
The right hemispheres of all Tg mice were fixed by immersion in freshly prepared 4% paraformaldehyde/PBS (pH 7.4) for one hour at room temperature. Thereafter brains were transferred to a 15% sucrose PBS solution for 24 hours to ensure cryoprotection. On the next day, brains were frozen in isopentane and stored at −80° C. until used for histological analysis.
From 6 animals per Tg group, 15 cryo-sections per layer (altogether 5 layers), each 10 μm thick (Leica CM 3050S) were sagittally cut. Brain levels were chosen according to the morphology atlas “The Mouse Brain” from Paxinos and Franklin (2nd edition). The cutting of the five levels started with a random slice corresponding to FIG. 105 (total appearance of the dentate gyrus), then sampling was continued uniformly and systematically, always retaining 15 slices per level in series and discarding 100 μm in between the levels.
Plaque load was quantified by staining with 6E10 IHC directed against AA1-17 of the human amyloid peptide and ThioflavinS staining against beta-sheet structures in a double incubation. Tissues of all investigated animals were handled uniformly.
Descriptive statistical analysis was performed on all evaluated parameters. Data were represented as mean±standard error of mean (SEM). Outliers were detected by Grubbs' test and were excluded from statistical analyses.
Values of the five single measurements (one from each cut level) per animal were integrated to one value per animal (individual mean). Group means were calculated with these integrated values. After Kolmogorov Smirnov normality distribution tests differences were calculated by a parametric ANOVA followed by a Newman Keuls multiple comparison post-hoc test or by a non-parametric Kruskal Wallis ANOVA followed by a Dunn's Multiple comparison test, if Gaussian distribution was missing.

For a further data set, the system named is Aβ deposits. In words: Long term in vivo effects on amyloid plaques in transgenic mice, cranial window, multiphoton spectroscopy. Conditions: tail vein injection, 10 mg/kg. The source says:
This long lasting binding to the plaques is advantageous for a long term therapeutic effect of the inventive compounds.

This note sets out measurements from patent US8710246B2, “Substituted thiophene pentamers” (Biochromix Newco AB, priority 2008, dated 2014).

Entries after “also recorded” stand apart in the source; their conditions may differ.

Turning to `O=C(O)Cc1cc(-c2ccc(C(=O)O)s2)sc1-c1ccc(-c2sc(-c3ccc(C(=O)O)s3)cc2CC(=O)O)s1` [Compound F], the “Aβ38, Aβ40 or Aβ42 levels in DEA extraction of soluble amyloid beta from brain homogenates” value in the data set with Aβ38, Aβ40 or Aβ42 (4 months old female hAPPSL mice) was “decreased”. Also, the “dose group with the strongest effect on DEA soluble Aβ” value with Aβ38, Aβ40 or Aβ42 is given as “strongest for 10 mg/kg/day group”. Further, in the data set on hAPPSL transgenic mice [1], the “MWM performance in terms of the swimming path” value is given as “better performance than any other Tg group”. Further, the “animals that died premature” value in the data set with hAPPSL transgenic mice [2] (1 mg/kg group) and in the data set on hAPPSL transgenic mice [2] (10 mg/kg group) was 1 animal in each case. For the same compound, the “attribution of premature deaths to the compound” value in the data set on hAPPSL transgenic mice [2] (0.1, 1, 10 mg/kg/day ip twice daily for 14 days, 4 months old female hAPPSL mice) is on record as “cannot be attributed to p-FTAA”. The “decrease in plaque area” value in the data set on amyloid plaques (1 mg/kg, hippocampus) was found to be 40%. Further, the “hippocampal plaque load compared to vehicle” value is “Statistical significance; also recorded: significantly lower plaque load” in the data set on amyloid plaques (1 mg/kg/day, ThioflavinS, listed as p-FTAA) and “Statistical significance; also recorded: significantly lower plaque load” with amyloid plaques (10 mg/kg/day, ThioflavinS, listed as p-FTAA). Further, the “plaque load in the cortex” value in the data set on amyloid plaques (0.1, 1, 10 mg/kg/day, ThioflavinS, listed as p-FTAA) is “without significant changes; also recorded: comparable among groups”. Further, the “reduction of diffuse 6E10 IR surrounding the plaque-cores, dose of strongest effect” value in the data set with amyloid plaques (6E10 IHC) was “strongest for the 10 mg/kg p-FTAA treatment”. For the same compound, the “effect on beta-sheet cores, dose of strongest effect” value with amyloid plaques (ThioflavinS) is on record as “strongest effect on beta-sheet cores was observed for the 1 mg/kg p-FTAA treatment”. The “plaque load, overall effect of treatment” value with amyloid plaques (mainly hippocampus, 6E10 IHC and ThioflavinS) is given as “reduction of plaque load”. The “binding to Aβ deposits in living mouse brain one week after injection” value in the data set with Aβ deposits (one week after injection) is on record as “binding of the inventive compounds to AP deposits could still be observed; also recorded: bound to Aβ deposits in living mouse brain one week after injection”. The “crossing of the blood brain barrier after intravenous injection” value with Aβ deposits (transgenic mice with AD-like pathology) is on record as “readily cross the blood brain barrier”.
